Earlier results as cited in article PMC6891756, “Synthesis and Biological Evaluation of Novel Aminochalcones as Potential Anticancer and Antimicrobial Agents” (Molecules, 2019).

Legend:
[1] = tested on: canine malignant histiocytic cell line (DH82); set-up: method as in PMID 28738308; details: read-out: IC50 DH82 proliferation (literature); cited from earlier work
[2] = tested on: HT-29 cell line; set-up: method as in doi:10.1007/s00044-011-9549-9; details: read-out: IC50 HT-29 (literature); cited from earlier work

Row | Structure (SMILES) | IC50 [1] | IC50 [2]
1 | Cc1ccc(/C=C/C(=O)c2ccccc2N)cc1 [2′-amino-4-methylchalcone] | 38.2 µM | 
2 | Nc1ccc(C(=O)/C=C/c2ccccc2Cl)cc1 [4′-amino-2-chlorochalcone] |  | 26.2 µM
3 | Nc1ccc(C(=O)/C=C/c2ccc(Cl)cc2)cc1 [4′-amino-4-chlorochalcone] | 31.4 µM | 
4 | Nc1ccc(C(=O)/C=C/c2ccc(F)cc2)cc1 [4′-amino-4-fluorochalcone] | 34.4 µM | 
